From US12162890B2 (Novartis AG, priority 2015, dated 2024) come the findings set out here.

For this test, the target named is HEK293 cells with stable expression of the GRIN1 gene and tetracycline-inducible expression of the GRIN2B gene (NMDA receptor, NR2B) (Homo sapiens, UniProt Q13224). Put plainly: Fluo-8 Ca2+ flux assay: reversal of Ro 25-6981-mediated suppression of the Ca2+ response to co-agonist (glutamate/glycine). Note: test concentration or dose not given here. The class given is cell-based. The settings on record: reversal of the Ro 25-6981 suppression of the Ca2+ response to co-agonist (glutamate/glycine). For orientation: Calcium assays in cells follow changes in intracellular calcium, usually with a dye or a luminescent sensor.
Chain of HEK293 cells with stable expression of the GRIN1 gene and tetracycline-inducible expression of the GRIN2B gene (NMDA receptor, NR2B) (Q13224 27-1484, other chains not shown): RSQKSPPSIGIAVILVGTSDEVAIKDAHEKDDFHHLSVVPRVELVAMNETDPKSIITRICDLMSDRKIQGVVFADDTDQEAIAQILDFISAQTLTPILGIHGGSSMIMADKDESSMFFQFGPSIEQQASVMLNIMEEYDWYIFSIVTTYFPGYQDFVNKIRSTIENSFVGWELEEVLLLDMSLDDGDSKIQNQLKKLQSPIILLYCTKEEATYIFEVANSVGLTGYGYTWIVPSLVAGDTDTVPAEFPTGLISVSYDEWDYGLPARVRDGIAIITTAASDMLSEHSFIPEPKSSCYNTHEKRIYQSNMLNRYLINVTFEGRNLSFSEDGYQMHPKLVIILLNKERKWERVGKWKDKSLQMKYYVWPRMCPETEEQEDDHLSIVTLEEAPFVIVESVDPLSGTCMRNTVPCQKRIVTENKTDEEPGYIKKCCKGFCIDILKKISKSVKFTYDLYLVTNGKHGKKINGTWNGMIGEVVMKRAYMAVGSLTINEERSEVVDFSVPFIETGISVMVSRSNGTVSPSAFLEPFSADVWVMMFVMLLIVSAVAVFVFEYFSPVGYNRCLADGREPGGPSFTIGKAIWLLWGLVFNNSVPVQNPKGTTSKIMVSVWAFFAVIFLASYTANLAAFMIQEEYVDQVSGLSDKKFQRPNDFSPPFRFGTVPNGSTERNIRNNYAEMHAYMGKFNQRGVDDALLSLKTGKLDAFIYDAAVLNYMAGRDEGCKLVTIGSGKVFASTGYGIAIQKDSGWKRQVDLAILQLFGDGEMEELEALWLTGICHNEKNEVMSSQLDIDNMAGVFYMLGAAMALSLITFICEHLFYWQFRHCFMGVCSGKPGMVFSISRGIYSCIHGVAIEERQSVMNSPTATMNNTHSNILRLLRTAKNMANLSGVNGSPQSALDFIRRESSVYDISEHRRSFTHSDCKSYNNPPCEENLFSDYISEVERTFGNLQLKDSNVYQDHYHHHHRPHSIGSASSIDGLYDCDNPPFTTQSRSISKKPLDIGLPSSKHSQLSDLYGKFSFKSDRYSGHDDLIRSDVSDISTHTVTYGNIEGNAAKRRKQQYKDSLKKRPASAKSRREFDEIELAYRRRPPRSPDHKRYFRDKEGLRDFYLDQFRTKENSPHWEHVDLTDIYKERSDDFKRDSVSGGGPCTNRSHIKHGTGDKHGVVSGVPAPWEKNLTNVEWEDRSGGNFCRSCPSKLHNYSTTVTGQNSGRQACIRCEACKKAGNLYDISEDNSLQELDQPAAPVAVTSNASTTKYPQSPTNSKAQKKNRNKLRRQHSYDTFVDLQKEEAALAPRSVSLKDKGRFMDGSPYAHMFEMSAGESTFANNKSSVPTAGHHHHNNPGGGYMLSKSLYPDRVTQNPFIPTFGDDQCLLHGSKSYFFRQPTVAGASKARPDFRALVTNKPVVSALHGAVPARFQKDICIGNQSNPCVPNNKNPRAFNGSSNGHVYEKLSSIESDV

As for `CC1(O)CN(C(=O)Cn2ccc3scc(-c4ccc(Cl)c(Cl)c4)c3c2=O)C1` [Example 61, 3-(3,4-dichlorophenyl)-5-(2-(3-hydroxy-3-methylazetidin-1-yl)-2-oxoethyl)thieno[3,2-c]pyridin-4(5H)-one], the “Response Recovered (%)” value was determined as 16%. On to `Cn1cnc(-n2cc(-c3ccc(F)c(Cl)c3)c3c(=O)n(CC(=O)N4CC(C)(F)C4)ccc32)n1` [Example 269, 3-(3-chloro-4-fluorophenyl)-5-(2-(3-fluoro-3-methylazetidin-1-yl)-2-oxoethyl)-1-(1-methyl-1H-1,2,4-triazol-3-yl)-1H-pyrrolo[3,2-c]pyridin-4(5H)-one], for which the “Response Recovered (%)” value was found to be 130%. Take `O=C(Cn1cnc2[nH]cc(-c3ccc(Cl)c(F)c3)c2c1=O)N1CCC(F)C1` (stereo not shown) [Example 179, 5-(4-Chloro-3-fluoro-phenyl)-3-[2-(3-fluoro-pyrrolidin-1-yl)-2-oxo-ethyl]-3,7-dihydro-pyrrolo[2,3-d]pyrimidin-4-one]: the “Response Recovered (%)” value amounted to 37%. Consider `O=C(Cn1ccc2scc(-c3cnc(Cl)c(Cl)c3)c2c1=O)N1CC(F)C(F)C1` (stereo not shown) [Example 35, 3-(5,6-dichloropyridin-3-yl)-5-(2-(3,4-difluoropyrrolidin-1-yl)-2-oxoethyl)thieno[3,2-c]pyridin-4(5H)-one], for which the “Response Recovered (%)” value is recorded as 28%.

As for `CCC1(F)CN(C(=O)Cn2ccc3scc(-c4cnc(C)c(Cl)c4)c3c2=O)C1` [Example 91, 3-(5-chloro-6-methylpyridin-3-yl)-5-(2-(3-ethyl-3-fluoroazetidin-1-yl)-2-oxoethyl)thieno[3,2-c]pyridin-4(5H)-one], the “Response Recovered (%)” value was 74%. For the compound `O=C(Cn1cnc2csc(-c3ccc(Cl)cc3)c2c1=O)N1CCC(O)C1` (stereo not shown) [Example 352, 5-(4-chlorophenyl)-3-(2-(3-hydroxypyrrolidin-1-yl)-2-oxoethyl)thieno[3,4-d]pyrimidin-4(3H)-one], the “Response Recovered (%)” value amounted to 7%. `CC1(F)CN(C(=O)Cn2ccn3cnc(-c4ccc(F)c(C(F)(F)F)c4)c3c2=O)C1` [Example 446, 1-(4-fluoro-3-(trifluoromethyl)phenyl)-7-(2-(3-fluoro-3-methylazetidin-1-yl)-2-oxoethyl)imidazo[1,5-a]pyrazin-8(7H)-one]: the “Response Recovered (%)” value came to 68%. Consider `CC(C)(O)Cn1cc(-c2ccc(F)c(Cl)c2)c2c(=O)n(CC(=O)N3CCC(F)C3)ccc21` (stereo not shown) [Example 259, 3-(3-chloro-4-fluorophenyl)-5-(2-(3-fluoropyrrolidin-1-yl)-2-oxoethyl)-1-(2-hydroxy-2-methylpropyl)-1H-pyrrolo[3,2-c]pyridin-4(5H)-one], for which the “Response Recovered (%)” value stood at 35%. On to `O=C(Cn1ccc2scc(-c3ccc(F)c(Cl)c3)c2c1=O)N1CC(F)(F)C1` [Example 8, 3-(3-Chloro-4-fluorophenyl)-5-[2-(3,3-difluoro-azetidin-1-yl)-2-oxo-ethyl]-5H-thieno[3,2-c]pyridin-4-one], for which the “Response Recovered (%)” value stood at 66%.

Consider `COCCn1cc(-c2ccc(F)c(Cl)c2)c2c(=O)n(CC(=O)N3CCCC3)cnc21` [Example 186, 5-(3-chloro-4-fluorophenyl)-7-(2-methoxyethyl)-3-(2-oxo-2-(pyrrolidin-1-yl)ethyl)-3H-pyrrolo[2,3-d]pyrimidin-4(7H)-one], for which the “Response Recovered (%)” value turned out to be 18%. On to `O=C(Cn1cnc2ccn(-c3ccc(Cl)cc3)c2c1=O)N1CCCC1` [Example 376, 5-(4-chlorophenyl)-3-(2-oxo-2-(pyrrolidin-1-yl)ethyl)-3H-pyrrolo[3,2-d]pyrimidin-4(5H)-one], for which the “Response Recovered (%)” value was found to be 3%.

On to `O=C(Cn1cnc2[nH]nc(-c3ccc(Cl)c(C(F)(F)F)c3)c2c1=O)N1CCC(F)C1` (stereo not shown) [Example 318, 3-(4-chloro-3-(trifluoromethyl)phenyl)-5-(2-(3-fluoropyrrolidin-1-yl)-2-oxoethyl)-1H-pyrazolo[3,4-d]pyrimidin-4(5H)-one], for which the “Response Recovered (%)” value was found to be 26%. For `O=C(Cn1cc(N2CCC2)c2scc(-c3ccc(F)c(C(F)(F)F)c3)c2c1=O)N1CCC(F)C1` (stereo not shown) [Example 115, 7-(azetidin-1-yl)-3-[4-fluoro-3-(trifluoromethyl)phenyl]-5-[2-(3-fluoropyrrolidin-1-yl)-2-oxoethyl]-4H,5H-thieno[3,2-c]pyridin-4-one], the “Response Recovered (%)” value is recorded as 8.3%. Consider `O=C(Cn1cnc2csc(-c3ccc(Cl)cc3)c2c1=O)N1CCC1` [Example 349, 3-(2-(azetidin-1-yl)-2-oxoethyl)-5-(4-chlorophenyl)thieno[3,4-d]pyrimidin-4(3H)-one], for which the “Response Recovered (%)” value worked out at 3%. As for `O=C(Cn1ccc2c(c(-c3ccc(Cl)c(Cl)c3)cn2C2CC2)c1=O)N1CC(F)(CF)C1` [Example 293, 1-cyclopropyl-3-(3,4-dichlorophenyl)-5-(2-(3-fluoro-3-(fluoromethyl)azetidin-1-yl)-2-oxoethyl)-1,5-dihydro-4H-pyrrolo[3,2-c]pyridin-4-one], the “Response Recovered (%)” value is 160%. With `O=C(Cn1cnc2c(c(-c3ccc(Cl)c(F)c3)cn2C2CC2)c1=O)N1CCCC1` [Example 191, 5-(4-chloro-3-fluorophenyl)-7-cyclopropyl-3-(2-oxo-2-(pyrrolidin-1-yl)ethyl)-3H-pyrrolo[2,3-d]pyrimidin-4(7H)-one], the “Response Recovered (%)” value is 36%. To `COC1CN(C(=O)Cn2cnc3ccn(-c4ccc(Cl)cc4)c3c2=O)C1` [Example 372, 5-(4-chlorophenyl)-3-(2-(3-methoxyazetidin-1-yl)-2-oxoethyl)-3H-pyrrolo[3,2-d]pyrimidin-4(5H)-one] belongs 1%; to `O=C(Cn1ccc2[nH]cc(-c3ccc(F)c(C(F)(F)F)c3)c2c1=O)N1CC(F)(F)C1` [Example 216, 5-(2-(3,3-difluoroazetidin-1-yl)-2-oxoethyl)-3-(4-fluoro-3-(trifluoromethyl)phenyl)-1H-pyrrolo[3,2-c]pyridin-4(5H)-one], 101%; to `CC1(F)CN(C(=O)Cn2ccc3[nH]cc(-c4ccc(F)c(C(F)(F)F)c4)c3c2=O)C1` [Example 222, 3-(4-fluoro-3-(trifluoromethyl)phenyl)-5-(2-(3-fluoro-3-methylazetidin-1-yl)-2-oxoethyl)-1H-pyrrolo[3,2-c]pyridin-4(5H)-one], 86%.

As to `COCn1cc(-c2ccc(F)c(C(F)(F)F)c2)c2c(=O)n(CC(=O)N3CC(F)C(F)C3)ccc21` (stereo not shown) [Example 242, 5-(2-(3,4-difluoropyrrolidin-1-yl)-2-oxoethyl)-3-(4-fluoro-3-(trifluoromethyl)phenyl)-1-(methoxymethyl)-1H-pyrrolo[3,2-c]pyridin-4(5H)-one], the “Response Recovered (%)” value was 110%. Consider `Cc1cc(-c2ccn3ccn(CC(=O)N4CC(F)(CF)C4)c(=O)c23)cnc1Cl` [Example 409, 8-(6-chloro-5-methylpyridin-3-yl)-2-(2-(3-fluoro-3-(fluoromethyl)azetidin-1-yl)-2-oxoethyl)pyrrolo[1,2-a]pyrazin-1(2H)-one], for which the “Response Recovered (%)” value came out at 33%. To `CC1(F)CN(C(=O)Cn2ccc3scc(-c4cnc(F)c(Cl)c4)c3c2=O)C1` [Example 19, 3-(5-chloro-6-fluoropyridin-3-yl)-5-(2-(3-fluoro-3-methylazetidin-1-yl)-2-oxoethyl)thieno[3,2-c]pyridin-4(5H)-one] belongs 35%.
